{
  "source": "ChEMBL document CHEMBL1201862",
  "about": "“PubChem BioAssay data set” (2004)",
  "assay_in_all_cases": "NCI-60 cell line screen, 48 h",
  "key": {"SW-620": {"test_system": "SW-620"}, "XF498": {"test_system": "XF498"}, "OVCAR-8": {"test_system": "OVCAR-8"}, "MCF7": {"test_system": "MCF7"}, "HCC 2998": {"test_system": "HCC 2998"}, "Hs-578T": {"test_system": "Hs-578T"}, "DLD-1": {"test_system": "DLD-1"}, "LXFL 529": {"test_system": "LXFL 529"}, "DMS-273": {"test_system": "DMS-273"}, "K562": {"test_system": "K562"}, "HOP-62": {"test_system": "HOP-62"}, "CAKI-1": {"test_system": "CAKI-1"}, "BT-549": {"test_system": "BT-549"}, "DMS-114": {"test_system": "DMS-114"}, "OVCAR-3": {"test_system": "OVCAR-3"}, "A498": {"test_system": "A498"}, "HCT-116": {"test_system": "HCT-116"}, "SR": {"test_system": "SR"}, "UO-31": {"test_system": "UO-31"}, "A549": {"test_system": "A549"}, "RXF 393": {"test_system": "RXF 393"}, "SNB-78": {"test_system": "SNB-78"}, "KM12": {"test_system": "KM12"}, "DU-145": {"test_system": "DU-145"}, "SK-MEL-5": {"test_system": "SK-MEL-5"}, "SNB-75": {"test_system": "SNB-75"}, "U-251": {"test_system": "U-251"}, "MDA-N": {"test_system": "MDA-N"}, "HCT-15": {"test_system": "HCT-15"}, "COLO 205": {"test_system": "COLO 205"}, "HT-29": {"test_system": "HT-29"}, "MDA-MB-231": {"test_system": "MDA-MB-231"}, "NCI-H460": {"test_system": "NCI-H460"}, "PC-3": {"test_system": "PC-3"}, "RPMI-8226": {"test_system": "RPMI-8226"}, "SK-MEL-28": {"test_system": "SK-MEL-28"}, "SF-268": {"test_system": "SF-268"}, "UACC-257": {"test_system": "UACC-257"}, "SK-MEL-2": {"test_system": "SK-MEL-2"}, "MDA-MB-435": {"test_system": "MDA-MB-435"}, "NCI-H23": {"test_system": "NCI-H23"}, "IGROV-1": {"test_system": "IGROV-1"}, "HL-60": {"test_system": "HL-60"}, "SK-OV-3": {"test_system": "SK-OV-3"}, "MOLT-4": {"test_system": "MOLT-4"}, "ACHN": {"test_system": "ACHN"}, "UACC-62": {"test_system": "UACC-62"}, "786-0": {"test_system": "786-0"}, "OVCAR-4": {"test_system": "OVCAR-4"}, "KM-20L2": {"test_system": "KM-20L2"}, "SF-295": {"test_system": "SF-295"}, "T47D": {"test_system": "T47D"}, "M14": {"test_system": "M14"}, "SF-539": {"test_system": "SF-539"}, "LOX IMVI": {"test_system": "LOX IMVI"}, "OVCAR-5": {"test_system": "OVCAR-5"}, "M19-MEL": {"test_system": "M19-MEL"}, "HOP-18": {"test_system": "HOP-18"}, "SN12C": {"test_system": "SN12C"}, "HOP-92": {"test_system": "HOP-92"}, "CCRF-CEM": {"test_system": "CCRF-CEM"}, "NCI-H522": {"test_system": "NCI-H522"}, "EKVX": {"test_system": "EKVX"}, "NCI-H226": {"test_system": "NCI-H226"}, "Malme-3M": {"test_system": "Malme-3M"}, "NCI/ADR-RES": {"test_system": "NCI/ADR-RES"}, "SNB-19": {"test_system": "SNB-19"}, "TK-10": {"test_system": "TK-10"}},
  "note": "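Assay format: 96-well plates, 48-hour exposure. The concentration for 50% growth inhibition is given as GI50.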 Calls of active or inactive are those of the source. Cut-off read from the data, not from the text of the source: active = GI50 up to about 1.1 µM and inactive = higher.",
  "data": [
    {"compound": "CCOc1ccc(/N=C/c2ccnc3ccccc23)cc1", "values": [
      {"measurement": "GI50", "setting": "SW-620", "result": "4.56 µM (inactive)"},
      {"measurement": "GI50", "setting": "XF498", "result": "> 100 µM (inactive)"},
      {"measurement": "GI50", "setting": "OVCAR-8", "result": "21.2 µM (inactive)"},
      {"measurement": "GI50", "setting": "MCF7", "result": "5.98 µM (inactive)"},
      {"measurement": "GI50", "setting": "HCC 2998", "result": "32.4 µM (inactive)"},
      {"measurement": "GI50", "setting": "Hs-578T", "result": "40.4 µM (inactive)"},
      {"measurement": "GI50", "setting": "DLD-1", "result": "4.57 µM (inactive)"},
      {"measurement": "GI50", "setting": "LXFL 529", "result": "16.2 µM (inactive)"},
      {"measurement": "GI50", "setting": "DMS-273", "result": "28.1 µM (inactive)"},
      {"measurement": "GI50", "setting": "K562", "result": "3.11 µM (inactive)"},
      {"measurement": "GI50", "setting": "HOP-62", "result": "54.6 µM (inactive)"},
      {"measurement": "GI50", "setting": "CAKI-1", "result": "74.3 µM (inactive)"},
      {"measurement": "GI50", "setting": "BT-549", "result": "34.4 µM (inactive)"},
      {"measurement": "GI50", "setting": "DMS-114", "result": "17.3 µM (inactive)"},
      {"measurement": "GI50", "setting": "OVCAR-3", "result": "31 µM (inactive)"},
      {"measurement": "GI50", "setting": "A498", "result": "> 100 µM (inactive)"},
      {"measurement": "GI50", "setting": "HCT-116", "result": "0.912 µM (active)"},
      {"measurement": "GI50", "setting": "SR", "result": "0.752 µM (active)"},
      {"measurement": "GI50", "setting": "UO-31", "result": "45.2 µM (inactive)"},
      {"measurement": "GI50", "setting": "A549", "result": "> 86.3 µM (inactive)"},
      {"measurement": "GI50", "setting": "RXF 393", "result": "> 96.6 µM (inactive)"},
      {"measurement": "GI50", "setting": "SNB-78", "result": "> 60.1 µM (inactive)"},
      {"measurement": "GI50", "setting": "KM12", "result": "19.7 µM (inactive)"},
      {"measurement": "GI50", "setting": "DU-145", "result": "60.3 µM (inactive)"},
      {"measurement": "GI50", "setting": "SK-MEL-5", "result": "8.15 µM (inactive)"},
      {"measurement": "GI50", "setting": "SNB-75", "result": "29.2 µM (inactive)"},
      {"measurement": "GI50", "setting": "U-251", "result": "32.7 µM (inactive)"},
      {"measurement": "GI50", "setting": "MDA-N", "result": "30.1 µM (inactive)"},
      {"measurement": "GI50", "setting": "HCT-15", "result": 11.5, "unit": "µM"},
      {"measurement": "GI50", "setting": "COLO 205", "result": "81.3 µM (inactive)"},
      {"measurement": "GI50", "setting": "HT-29", "result": "27.3 µM (inactive)"},
      {"measurement": "GI50", "setting": "MDA-MB-231", "result": "20.7 µM (inactive)"},
      {"measurement": "GI50", "setting": "NCI-H460", "result": "61.7 µM (inactive)"},
      {"measurement": "GI50", "setting": "PC-3", "result": "31.5 µM (inactive)"},
      {"measurement": "GI50", "setting": "RPMI-8226", "result": "6.53 µM (inactive)"},
      {"measurement": "GI50", "setting": "SK-MEL-28", "result": "50.1 µM (inactive)"},
      {"measurement": "GI50", "setting": "SF-268", "result": "27.2 µM (inactive)"},
      {"measurement": "GI50", "setting": "UACC-257", "result": "98.6 µM (inactive)"},
      {"measurement": "GI50", "setting": "SK-MEL-2", "result": "61.8 µM (inactive)"},
      {"measurement": "GI50", "setting": "MDA-MB-435", "result": "42.7 µM (inactive)"},
      {"measurement": "GI50", "setting": "NCI-H23", "result": "49.3 µM (inactive)"},
      {"measurement": "GI50", "setting": "IGROV-1", "result": "43 µM (inactive)"},
      {"measurement": "GI50", "setting": "HL-60", "result": "2.05 µM (inactive)"},
      {"measurement": "GI50", "setting": "SK-OV-3", "result": "67.8 µM (inactive)"},
      {"measurement": "GI50", "setting": "MOLT-4", "result": "5.9 µM (inactive)"},
      {"measurement": "GI50", "setting": "ACHN", "result": "58.2 µM (inactive)"},
      {"measurement": "GI50", "setting": "UACC-62", "result": "60.8 µM (inactive)"},
      {"measurement": "GI50", "setting": "786-0", "result": "57.1 µM (inactive)"},
      {"measurement": "GI50", "setting": "OVCAR-4", "result": "62.8 µM (inactive)"},
      {"measurement": "GI50", "setting": "KM-20L2", "result": "43.7 µM (inactive)"},
      {"measurement": "GI50", "setting": "SF-295", "result": "49.1 µM (inactive)"},
      {"measurement": "GI50", "setting": "T47D", "result": "47.9 µM (inactive)"},
      {"measurement": "GI50", "setting": "M14", "result": "30.3 µM (inactive)"},
      {"measurement": "GI50", "setting": "SF-539", "result": "26.5 µM (inactive)"},
      {"measurement": "GI50", "setting": "LOX IMVI", "result": "13.2 µM (inactive)"},
      {"measurement": "GI50", "setting": "OVCAR-5", "result": "99.3 µM (inactive)"},
      {"measurement": "GI50", "setting": "M19-MEL", "result": "> 71.1 µM (inactive)"},
      {"measurement": "GI50", "setting": "HOP-18", "result": "> 100 µM (inactive)"},
      {"measurement": "GI50", "setting": "SN12C", "result": "29 µM (inactive)"},
      {"measurement": "GI50", "setting": "HOP-92", "result": "49.8 µM (inactive)"},
      {"measurement": "GI50", "setting": "CCRF-CEM", "result": "2.63 µM (inactive)"},
      {"measurement": "GI50", "setting": "NCI-H522", "result": "36.3 µM (inactive)"},
      {"measurement": "GI50", "setting": "EKVX", "result": "> 93.1 µM (inactive)"},
      {"measurement": "GI50", "setting": "NCI-H226", "result": "73.6 µM (inactive)"},
      {"measurement": "GI50", "setting": "Malme-3M", "result": "75.9 µM (inactive)"},
      {"measurement": "GI50", "setting": "NCI/ADR-RES", "result": "35.9 µM (inactive)"},
      {"measurement": "GI50", "setting": "SNB-19", "result": "82.8 µM (inactive)"},
      {"measurement": "GI50", "setting": "TK-10", "result": "92.3 µM (inactive)"}
    ]}
  ]
}
